Some results are limits rather than exact numbers.

The text below walks through data of patent US20260317356A1, “SMALL MOLECULE MODULATORS OF OGG1” (AZKARRA THERAPEUTICS, INC., priority 2023, published 2026).

hOGG1, sequence (O15527 12-323): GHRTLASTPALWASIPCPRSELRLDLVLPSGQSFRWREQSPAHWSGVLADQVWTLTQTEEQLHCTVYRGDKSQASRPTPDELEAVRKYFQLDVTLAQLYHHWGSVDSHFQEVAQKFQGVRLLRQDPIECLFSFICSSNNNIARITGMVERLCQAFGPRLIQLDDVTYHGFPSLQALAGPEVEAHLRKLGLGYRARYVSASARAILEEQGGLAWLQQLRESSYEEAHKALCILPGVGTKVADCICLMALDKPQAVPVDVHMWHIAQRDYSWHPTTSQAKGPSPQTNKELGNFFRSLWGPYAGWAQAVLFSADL

One experiment concerns the target hOGG1 (Homo sapiens, UniProt O15527). Briefly: Biochemical fluorescence assay to measure enzymatic activity of hOGG1 (OGG1/APEX IC50). Conditions: 1 nM OGG1+2 nM APEX+6 nM dsDNA (8-oxo-dG substrate); pH 7.5; RT 40 min; read-out: OGG1/APEX IC50. Details: Protein His-hOGG1 (12-323) was prepared; His (N); host or cells: E. coli. Put shortly:
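Coupled glycosylase/AP-endonuclease read-out: 8-oxo-dG-containing dsDNA (6 nM) cleaved by 1 nM His-hOGG1 (12-323) plus 2 nM APEX1 over 40 min at room temperature, after 20 min enzyme–compound preincubation; buffer 20 mM Tris pH 7.5, 100 mM KCl, 0.1% BSA, 0.01% Tween. IC50 comes from sigmoidal 3-parameter fitting of % inhibition derived from TAMRA signal.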
As for `O=C(Nc1ccc(I)cc1)N1CCC(N2Cc3c(Br)cccc3C2=O)CC1` [Example 182, 4-(4-Bromo-1-oxoisoindolin-2-yl)-N-(4-iodophenyl) piperidine-1-carboxamide], the IC50 is over 10 µM.

As to `COc1cc(NC(=O)[C@H]2CC[C@@H](N3Cc4c(Br)cncc4C3=O)CC2)ccc1C` [Example 183, (1s,4s)-4-(7-bromo-3-oxo-1H-pyrrolo[3,4-c]pyridin-2(3H)-yl)-N-(3-methoxy-4-methylphenyl)cyclohexanecarboxamide], the IC50 was 0.1 to 1 µM.

On to `COc1cc(NC(=O)[C@H]2CC[C@@H](n3oc4c(Br)cccc4c3=O)CC2)ccc1C` [Example 184, (1s,4s)-4-(7-Bromo-3-oxobenzo[d]isoxazol-2(3H)-yl)-N-(3-methoxy-4-methylphenyl)cyclohexanecarboxamide], for which the IC50 is over 10 µM.

With `O=C1c2cccc(Br)c2CN1[C@H]1CC[C@@H](C(=O)Nc2ccc3c(c2)OCO3)CC1` [Example 185, (1s,4s)-N-(Benzo[d][1,3]dioxol-5-yl)-4-(4-bromo-1-oxoisoindolin-2-yl)cyclohexanecarboxamide], the IC50 fell in the range of 1 to 10 µM.

`O=C1c2cccc(Br)c2CN1[C@H]1CC[C@@H](C(=O)Nc2ccc3c(c2)OC(F)(F)O3)CC1` [Example 186, (1s,4s)-4-(4-Bromo-1-oxoisoindolin-2-yl)-N-(2,2-difluorobenzo[d][1,3]dioxol-5-yl)cyclohexanecarboxamide]: the IC50 was over 10 µM.

Take `COc1cc(NC(=O)C[C@H]2C[C@H](N3Cc4c(Br)cccc4C3=O)C2)ccc1C` [Example 187, 2-((1r,3r)-3-(4-Bromo-1-oxoisoindolin-2-yl)cyclobutyl)-N-(3-methoxy-4-methylphenyl)acetamide]: the IC50 is over 10 µM.

`COc1cc(NC(=O)C(C)N2CC(N3Cc4c(Br)cccc4C3=O)C2)ccc1C` (stereo not shown) [Example 188, 2-(3-(4-Bromo-1-oxoisoindolin-2-yl)azetidin-1-yl)-N-(3-methoxy-4-methylphenyl)propanamide]: the IC50 is over 10 µM.

In the case of `COc1cc(NC(=O)[C@H]2CC[C@@H](N3Cc4c(ccc(O)c4Br)C3=O)CC2)ccc1C` [Example 189, (1s,4s)-4-(4-Bromo-5-hydroxy-1-oxoisoindolin-2-yl)-N-(3-methoxy-4-methylphenyl)cyclohexanecarboxamide], the IC50 fell in the range of 0.1 to 1 µM.

On to `Cn1c(NC(=O)[C@H]2CC[C@@H](N3Cc4c(Br)cccc4C3=O)CC2)nc2ccccc21` [Example 190, (1s,4s)-4-(4-Bromo-1-oxoisoindolin-2-yl)-N-(1-methyl-1H-benzo[d]imidazol-2-yl)cyclohexanecarboxamide], for which the IC50 is 1 to 10 µM.

As to `O=C1c2cccc(Br)c2CN1[C@H]1CC[C@@H](C(=O)Nc2ccc3c(c2)OCCO3)CC1` [Example 191, (1s,4s)-4-(4-Bromo-1-oxoisoindolin-2-yl)-N-(2,3-dihydrobenzo[b][1,4]dioxin-6-yl)cyclohexanecarboxamide], the IC50 was in the range of 1 to 10 µM.

Take `COc1cc(NC(=O)[C@H]2CC[C@@H](N3Cc4c(C)cc(NCC5CCCN5)cc4C3=O)CC2)ccc1C` (stereo partly shown) [Example 194, (1s,4s)-N-(3-methoxy-4-methylphenyl)-4-(4-methyl-1-oxo-6-(pyrrolidin-2-ylmethylamino)isoindolin-2-yl)cyclohexanecarboxamide]: the IC50 was under 0.1 µM.

As to `COc1cc(NC(=O)[C@H]2CC[C@@H](N3Cc4c(C)cc(NCC5CNC5)cc4C3=O)CC2)ccc1C` [Example 195, (1s,4s)-4-(6-(Azetidin-3-ylmethylamino)-4-methyl-1-oxoisoindolin-2-yl)-N-(3-methoxy-4-methylphenyl)cyclohexanecarboxamide], the IC50 is under 0.1 µM.

The experiment is the same for the next values; noted with them: OGG1/APEX IC50, 1 nM OGG1+2 nM APEX+6 nM dsDNA (8-oxo-dG substrate); pH 7.5; RT 40 min.
Consider `COc1cc(NC(=O)[C@H]2CC[C@@H](N3Cc4c(C)cc(N)cc4C3=O)CC2)ccc1C` [Example 192, (1s,4s)-4-(6-Amino-4-methyl-1-oxoisoindolin-2-yl)-N-(3-methoxy-4-methylphenyl)cyclohexanecarboxamide], for which the IC50 was under 0.1 µM.
